Experimental findings from patent US6656714B2, “Nucleic acids and proteins of a rat ganglioside GM1-specific α1→2 fucosyltransferase and uses thereof” (Northwest Hospital, priority 1999, dated 2003) are described below.

For experiment [1], the system named is α1→2FucT. Kind of experiment: α1→2FucT enzyme activity in liver of AAF-fed rats. Format: in vivo. To be noted: AAF-fed rat liver sample; none detected in normal liver.
For experiment [2], the target named is T1, recombinant rat α1→2fucosyltransferase (Rattus norvegicus, UniProt Q10984).
T1 construct: Full length α1→2FucT cDNA was then cloned into pcDNA 3 vector; expressed in transfected cells; host or cells: COS-7 cells, transient transfection, sonicated homogenate
T1 sequence (Q10984 1-380 isoform Q10984-2): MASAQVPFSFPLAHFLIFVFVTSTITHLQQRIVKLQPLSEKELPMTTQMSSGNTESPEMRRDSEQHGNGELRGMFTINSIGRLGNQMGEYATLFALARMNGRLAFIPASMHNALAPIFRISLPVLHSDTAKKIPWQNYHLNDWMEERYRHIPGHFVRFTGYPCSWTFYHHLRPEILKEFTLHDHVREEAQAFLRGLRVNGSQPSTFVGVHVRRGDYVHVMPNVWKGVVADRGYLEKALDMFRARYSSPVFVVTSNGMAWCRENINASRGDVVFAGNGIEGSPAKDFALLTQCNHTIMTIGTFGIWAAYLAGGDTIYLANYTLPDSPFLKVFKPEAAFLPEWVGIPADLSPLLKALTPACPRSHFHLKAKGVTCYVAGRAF
The experiment in a line: Preparative in vitro biosynthesis of fucosyl-GM1 with homogenate of COS-7 cells expressing rat α1→2fucosyltransferase (HPTLC). To be noted: 0.5 mg GM1, 2 mg crude cell homogenate, after 24 to 48 hours. It counts as biochemical. The method, then: Preparative biosynthesis of fucosyl-GM1 was conducted in reaction mixtures composed of 25 μmol of HEPES buffer, pH 7.2, 10 μmol of MnCl2, 500 μg CHAPSO, 0.5 mg GM1, and 2 mg crude cell homogenate of COS-7 cells transiently transfected with plasmid containing the entire rat α1→2fucosyltransferase coding sequence in a total volume of 0.5 ml. Progress of the reaction was followed with time by withdrawing 2 μl of the reaction mixture and spotting it on an HPTLC plate. The plate was developed in a solvent system composed of CHCL3:CH3OH:H2O, 60:40:9, containing 0.02% CaCl2. Glycolipid bands were determined by orcinol spray (FIG. 9).

In experiment [3] the target is T2, full length rat hepatoma α1→2FucT (Rattus norvegicus, UniProt Q10984).
T2 construct: Full length α1→2FucT cDNA was then cloned into pcDNA 3 vector; expressed in transfected cells; host or cells: COS-7 cells, transient transfection, sonicated homogenate
T2 sequence (Q10984 1-380 isoform Q10984-2): T1 sequence (Q10984 1-380 isoform Q10984-2)
The experiment in a line: Enzyme assay of expressed recombinant full length α1→2FucT in homogenates of transfected COS-7 cells, transfer of [14C]fucose to GM1 (TLC). It counts as biochemical. As to conditions: for transfer to GM1 in the presence of additive, compared with no detergent or phospholipid: CHAPSO 100 μg, phosphatidylglycerol 250 μg. An excerpt: Expression of full length α1→2FucT cDNA in transfected cells results in membrane-bound enzyme. COS-7 cells were transiently transfected by the DEAE-dextran method (Ausubel, F. M., et al., Current Protocols in Molecular Biology, Wiley, N.Y.) with either FL-RFT-pcDNA3 or FL-RFT(−)-pcDNA3. Four to five days later, the cells were harvested, sonicated in HEPES, glycerol, DTE buffer and assayed for enzyme activity as described previously (Sherwood, A. L., et al., 1998, Arch. Biochem. Biophys. 355:215-221).

Experiment [4] has as its target T3, catalytic domain of rat hepatoma H35 cell α1→2FucT (Rattus norvegicus, UniProt Q10984).
T3 construct: made in house; host or cells: COS-7 cells (secreted fusion protein, captured on IgG-agarose)
T3 sequence (Q10984 28-380 isoform Q10984-2): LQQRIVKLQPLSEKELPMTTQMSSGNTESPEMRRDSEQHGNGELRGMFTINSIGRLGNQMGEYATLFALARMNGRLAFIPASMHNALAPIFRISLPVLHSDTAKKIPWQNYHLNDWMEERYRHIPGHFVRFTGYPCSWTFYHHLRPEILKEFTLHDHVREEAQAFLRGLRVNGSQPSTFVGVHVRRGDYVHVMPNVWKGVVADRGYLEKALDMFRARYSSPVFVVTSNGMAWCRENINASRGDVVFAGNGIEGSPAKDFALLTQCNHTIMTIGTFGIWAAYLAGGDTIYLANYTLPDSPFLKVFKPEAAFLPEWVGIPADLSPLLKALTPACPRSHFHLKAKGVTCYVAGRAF
Kind of experiment: α1→2Fucosyltransferase assay, pPROTA-expressed catalytic domain on IgG-agarose beads, transfer of [14C]fucose to glycolipid acceptors (TLC). Format: biochemical. To be noted: 30 μg acceptor, 2 h at 37° C., 250 μg phosphatidylglycerol, GDP-[14C]fucose. The method, then: For example, as illustrated in Section 6.3.2, infra, the activity of α1→2fucosyltransferase coupled to the IgG-binding domain of Protein A can be determined in reaction mixtures containing 2.5 μmol of HEPES buffer, pH7.2, 30 μg of GM1. ganglioside or nLc4, 250 μg phosphatidylglycerol, 1 μmol of MnCl2, 0.5 μmol of CDP-choline, 15 nmol of GDP-[^14C]fucose (15,000 cpm/nmol), and bound to IgG-agarose beads in a total volume of 0.1 ml. The reaction mixtures are incubated for 2 h at 37° C., terminated by the addition of 0.1 ml of CHCl3:CH3OH (2:1), streaked onto 4-cm-wide strips of Whatman 3 paper and developed with water overnight. The papers are dried and the labeled product extracted from the origins with 2- to 5-ml washes of CHCl3:CH3OH:H2O (10:5:1). The combined eluates are concentrated to dryness by an N2 stream and dissolved in 20 μl of CHCl3:CH3OH (2:1). A 10-μl aliquot of each is spotted onto a HP-TLC plate (Merck)and developed in a solvent system composed of CHCl3:CH3OH:H2O (60:40:9), 0.02% CaCl2.2H2O. […]
α1→2Fucosyltransferase activity was determined in reaction mixtures containing 2.5 μmol of HEPES buffer, pH7.2, 30 μg of GM1 ganglioside or nLc4, 250 μg phosphatidylglycerol, 1 μmol of MnCl2, 0.5 μmol of CDP-choline, 15 nmol of GDP-[^14C]fucose (15,000 cpm/nmol), and pPROTA-expressed enzyme bound to IgG-agarose beads in a total volume of 0.1 ml. […]

In the case of `CC(=O)Nc1ccc2c(c1)Cc1ccccc1-2` [AAF, N-2-acetylaminofluorene], the “α1→2FucT enzyme activity in liver” value in experiment [1] is given as “moderate level”.
II^3NeuAcGg4 [GM1]: the “conversion of GM1 to fucosyl-GM1” value in experiment [2] was “almost complete conversion”. The “transfer of fucose to GM1 by full length enzyme” value in experiment [3] (two hours at 37° C.) was “transfers fucose to GM1 with high efficiency”. The “transfer of fucose to acceptor” value in experiment [4] is listed as “transfer fucose to GM1”.
As for lactoneotetraosylceramide [nLcOse4Cer], the “transfer of fucose to acceptor” value in experiment [4] is recorded as “No detectable transfer”.
As for phosphatidylglycerol, the “transfer to GM1 in the presence of additive, compared with no detergent or phospholipid” value in experiment [3] was “Somewhat less transfer”.
On to `C[C@H](CCC(=O)NCCC[N+](C)(C)CC(O)CS(=O)(=O)[O-])[C@H]1CC[C@H]2[C@@H]3[C@H](O)C[C@@H]4C[C@H](O)CC[C@]4(C)[C@H]3C[C@H](O)[C@]12C` (stereo partly shown) [CHAPSO], for which the “transfer to GM1 in the presence of additive, compared with no detergent or phospholipid” value in experiment [3] is “Comparable transfer”.
